Experimental data reported in patent US12016876B2, “Micro-RNAs and compositions comprising same for the treatment and diagnosis of serotonin-, adrenalin-, noradrenalin-, glutamate-, and corticotropin-releasing hormone- associated medical conditions” (Yeda Research and Development Co. Ltd., priority 2011, dated 2024).

Experiments:
[1] = test system: mice; assay: Tail suspension test; assay type: in vivo
Protocol: The tail suspension test was performed in the TSE Tail Suspension Monitor (TSE Systems, Bad Homburg, Germany). Each mouse was taped by the tip of its tail, and suspended from the force sensor for 10 minutes. Time spent immobile and time spent struggling were calculated and recorded by the software based on pre-set thresholds.

[2] = test system: miR-135a; assay: miR-135a levels after antidepressant treatment, real time PCR; details: for miR-135a levels in the RN: acute or chronic administration, 20 mg/kg i.p.
[3] = test system: mice; assay: Forced swim test; assay type: in vivo
Protocol: The […] was performed as previously described [Krishnan V and Nestler E J, Nature (2008) 455: 894-902]. In short, the apparatus used was a plastic bucket, 18 cm of diameter, filled with 25° C. water to a depth of 15 cm. Each mouse was placed in the center of the bucket to initiate a 6 minutes video recorded test session. The duration of time spent immobile during the 2-6 minute of testing was automatically scored using Eto Vision XT (Noldus, Wageningen, Netherlands).

[4] = test system: miR-135b; assay: miR-135b levels after antidepressant treatment, real time PCR; details: for miR-135b levels in the RN: acute or chronic administration, 20 mg/kg i.p.
[5] = test system: miR-19b; assay: miR-19b levels in PFC after Reboxetine; assay type: in vivo, mice
Protocol: (§1) Mice received i.p. injection of tricyclic-Imipramine, or SSRI-Fluoxetine, or NRI-Reboxetine (20 mg/kg in saline) or saline.
(§2) These animals will be also tested for anxiety like behavior, locomotor activity and memory performance. Furthermore, the levels of expression of miR-19a and miR-19b are examined in different regions of interest (E.G the hippocampus, amygdala and forebrain) following an acute and chronic systemic treatment with the Noradrenaline reuptake inhibitor Reboxetine in WT mice.

[6] = test system: miR-19a; assay: miR-19a levels in PFC after Reboxetine; assay type: in vivo, mice
Protocol: as §1, §2

[7] = test system: Slc6a4 3′UTR; assay: Luciferase reporter assay, Slc6a4 3′UTR, HEK293T cells; assay type: cell-based, mouse; details: for repression of Slc6a4 3′UTR luciferase reporter: miR over-expressing vector vs empty vector, HEK293T; for repression with Slc6a4 3′UTR mutated in miR-135 seed match: mutated 3′UTR lacking miR-135 seed match
Text: (§3) 3′UTR sequences of Slc6a4, Htr1a, MaoA and Tph2 were PCR amplified from mouse genomic DNA, or total brain cDNA. 3′UTR PCR fragments were ligated into pGEM-T easy vector (Promega) according to the manufacturer's guidelines, and further subcloned into a single NotI site at the 3′ end of luciferase in the Psicheck2 reporter plasmid (Promega). Mutated 3′ UTR sequences, lacking miR-135 seed sequences, were synthesized with primers overhangs across the seed match sequence. Cloning orientation was verified by diagnostic cuts and by sequencing.
(§4) HEK293T cells were grown on poly-L-lysine in 48-well format to a 70-85% confluence and transfected using Polyethyleneimine with the following plasmids: 5 ng of Psicheck2-3′UTR plasmid and 215 ng of over-expressing vector for a specific miRNA, or empty-miR-vec over-expression plasmids. 24 hours following transfection cells were lysed and luciferase reporters activity were assayed as previously described [Chen A. et al. Mol Endocrinol (2005) 19: 441-58]. Renilla luciferase values were normalized to control firefly luciferase levels (transcribed from the same vector but not affected by 3′UTR tested) and averaged across six well repetitions per condition.

[8] = test system: Htr1a 3′UTR; assay: Luciferase reporter assay, Htr1a 3′UTR, HEK293T cells; assay type: cell-based, mouse; details: for seed matches through which Htr1a 3′UTR is repressed: Htr1a miR-135 seed matches mutated individually or both; for repression of Htr1a 3′UTR luciferase reporter: miR over-expressing vector vs empty vector, HEK293T
Text: as §3, §4
3′UTR sequence of Htr1a was PCR amplified from mouse genomic DNA. 3′UTR PCR fragments were ligated into pGEM-T easy vector (Promega) according to the manufacturer's guidelines, and further subcloned into a single NotI site at the 3′ end of luciferase in the Psicheck2 reporter plasmid (Promega). Cloning orientation was verified by diagnostic cuts and by sequencing.
as §4, with “plasmids:” for “plasmids: 5 ng of”, “Psicheck2-3′UTR plasmid, pre-mmu-miR-182 over-expression in pEGFP” for “Psicheck2-3′UTR”, “plasmid” for “plasmid and 215 ng of over-expressing vector for a specific miRNA,”, “pEGFP plasmid alone (clontech).” for “empty-miR-vec over-expression plasmids.”

[9] = test system: miR-135b; assay: Lentiviral over-expression of miR-135b in RN, real time PCR; details: lentiviruses over-expressing miR-135b injected into RN, vs control lentiviruses
[10] = test system: mice; assay: Home cage locomotor activity; assay type: in vivo; details: lentiviral miR-135b over-expression in RN
Protocol: To control for the possibility of behavioral effects originating from differences in ambulatory movement, locomotor activity of mice was examined over a 48 hours period, which proceeded a few days of habituation. Mice were single housed in specialized home cages and locomotion was measured using the InfraMot system (TSE Systems, Bad Hamburg, Germany).

[11] = test system: L1cam 3′UTR; assay: Luciferase assay, L1cam 3′UTR, N2a cells; assay type: cell-based
Protocol: (§5) Using a luciferase assay, eleven predicted target genes of miR182, chosen after extensive bioinformatics, were examined (FIG. 27A).
(§6) Similar verification for Dscam and Htr1a with mutated 3′UTR are performed.

[12] = test system: Tsnax 3′UTR; assay: Luciferase assay, Tsnax 3′UTR, N2a cells; assay type: cell-based
Protocol: as §5, §6

[13] = test system: miR-182; assay: miR-182 over-expression lentiviruses in N2a cell line, real time PCR; details: N2a cells infected with over-expression lentiviruses vs control
[14] = test system: Dscam 3′UTR; assay: Luciferase assay, Dscam 3′UTR, N2a cells; assay type: cell-based
Text: as §5

[15] = acute and chronic administration
[16] = chronic administration (18 days)

## CNCCC(Oc1ccc(C(F)(F)F)cc1)c1ccccc1 (stereo not drawn) [Fluoxetine]
[1]; SSRI treatment vs basal, miR135KD and control KD mice
  immobility time, tail suspension test: decrease in immobility time
[2]; acute administration
  miR135a levels in the AMY: upregulated
  miR135a levels in the PFC: not significantly altered
[2]; [15]
  circulating miR-135a levels in plasma: robust decrease
[2]
  miR-135a levels in the RN: robust increase
[2]; chronic administration
  miR135a levels in the AMY: not by chronic administration
  miR135a levels in the PFC: decreased
[3]; SSRI treatment, miR135KD and control KD mice
  immobility time, forced swim test: reduced
[4]; acute administration
  miR135b levels in the AMY: upregulated
  miR135b levels in the PFC: upregulated
[4]; [15]
  circulating miR-135b levels in plasma: no effect
[4]
  miR-135b levels in the RN: unaltered
[4]; chronic administration
  miR135b levels in the AMY: not by chronic administration
  miR135b levels in the PFC: decreased

## CN(C)CCCN1c2ccccc2CCc2ccccc21 [Imipramine]
[2]
  miR-135a levels in the RN: increased
[4]
  miR-135b levels in the RN: increased

## CCOc1ccccc1OC(c1ccccc1)C1CNCCO1 (stereo not drawn) [Reboxetine]
[5]; acute administration (once)
  miR-19b levels in the PFC: down regulated
[5]; [16]
  miR-19b levels in the PFC: upregulated
[2]; acute administration
  miR135a levels in the AMY: upregulated
  miR135a levels in the PFC: not significantly altered
[2]
  miR-135a levels in the RN: not
[2]; chronic administration
  miR135a levels in the AMY: not by chronic administration
[6]; acute administration (once)
  miR-19a levels in the PFC: down regulated
[6]; [16]
  miR-19a levels in the PFC: upregulated
[4]; acute administration
  miR135b levels in the AMY: upregulated
  miR135b levels in the PFC: upregulated
[4]
  miR-135b levels in the RN: unaltered
[4]; chronic administration
  miR135b levels in the AMY: not by chronic administration

## miR-135a: microRNA over-expressed from a vector; SEQ ID NO: 24 (AGUGUAUCCUUAUUUUUCGGUAU; listed as Mus musculus)
[7]
  repression of Slc6a4 3′UTR luciferase reporter: approximately 30%
  repression with Slc6a4 3′UTR mutated in miR-135 seed match: fully blocked
[8]
  seed matches through which Htr1a 3′UTR is repressed: via the distal and not the proximal seed match
  repression of Htr1a 3′UTR luciferase reporter: approximately 30%

## miR-135b: microRNA over-expressed from plasmid or neuron-specific lentivirus (pre-miR-135b); SEQ ID NO: 26 (AGUGUAUCCUUACUUUUCGGUAU; listed as Mus musculus)
[9]
  induction of miR-135b levels in RN: 10 fold
[1]; lentiviral miR-135b over-expression in RN, after chronic social defeat, last 5 min
  immobility time, tail suspension test: reduced immobility time
[7]
  repression of Slc6a4 3′UTR luciferase reporter: approximately 50%
  repression with Slc6a4 3′UTR mutated in miR-135 seed match: fully blocked
[10]
  home cage locomotion: without any observed change
[3]; lentiviral miR-135b over-expression in RN, after chronic social defeat
  immobility time, forced swim test: reduced immobility time
[8]
  seed matches through which Htr1a 3′UTR is repressed: via both predicted sites
  repression of Htr1a 3′UTR luciferase reporter: approximately 50%

B1: miR-335: microRNA over-expressed from a vector (nucleic acid, listed as Homo sapiens)
chain 1: UGUUUUGAGCGGGGGUCAAGAGCAAUAACGAAAAAUGUUUGUCAUAAACCGUUUUUCAUUAUUGCUCCUGACCUCCUCUCAUUUGCUAUAUUCA
chain 2: UCAAGAGCAAUAACGAAAAAUGU
[8]
  repression of Htr1a 3′UTR luciferase reporter: significant repression

B2: miR-182: pre-mmu-miR-182 over-expression in pEGFP plasmid or lentiviruses (nucleic acid, listed as Homo sapiens)
chain 1: GAGCUGCUUGCCUCCCCCCGUUUUUGGCAAUGGUAGAACUCACACUGGUGAGGUAACAGGAUCCGGUGGUUCUAGACUUGCCAACUAUGGGGCGAGGACUCAGCCGGCAC
chain 2: UUUGGCAAUGGUAGAACUCACACCG
[11]; N2a cells
  effect on L1cam 3′UTR luciferase: represoric effect
[11]; mutated 3′UTR
  effect on L1cam 3′UTR with mutated seed match: abolished
[12]; N2a cells
  effect on Tsnax 3′UTR luciferase: represoric effect
[12]; mutated 3′UTR
  effect on Tsnax 3′UTR with mutated seed match: abolished
[8]
  repression of Htr1a 3′UTR luciferase reporter: strong repression
[13]
  miR-182 levels in infected cells: increased miR-182 levels
[14]
  effect on Dscam 3′UTR luciferase: represoric effect
